ChEMBL document CHEMBL1140477 (Bioorg Med Chem, 2007)

Molecular target: T1, 3-hydroxy-3-methylglutaryl-coenzyme A reductase (Rattus norvegicus, UniProt P51639)
T1 sequence (P51639 whole entry): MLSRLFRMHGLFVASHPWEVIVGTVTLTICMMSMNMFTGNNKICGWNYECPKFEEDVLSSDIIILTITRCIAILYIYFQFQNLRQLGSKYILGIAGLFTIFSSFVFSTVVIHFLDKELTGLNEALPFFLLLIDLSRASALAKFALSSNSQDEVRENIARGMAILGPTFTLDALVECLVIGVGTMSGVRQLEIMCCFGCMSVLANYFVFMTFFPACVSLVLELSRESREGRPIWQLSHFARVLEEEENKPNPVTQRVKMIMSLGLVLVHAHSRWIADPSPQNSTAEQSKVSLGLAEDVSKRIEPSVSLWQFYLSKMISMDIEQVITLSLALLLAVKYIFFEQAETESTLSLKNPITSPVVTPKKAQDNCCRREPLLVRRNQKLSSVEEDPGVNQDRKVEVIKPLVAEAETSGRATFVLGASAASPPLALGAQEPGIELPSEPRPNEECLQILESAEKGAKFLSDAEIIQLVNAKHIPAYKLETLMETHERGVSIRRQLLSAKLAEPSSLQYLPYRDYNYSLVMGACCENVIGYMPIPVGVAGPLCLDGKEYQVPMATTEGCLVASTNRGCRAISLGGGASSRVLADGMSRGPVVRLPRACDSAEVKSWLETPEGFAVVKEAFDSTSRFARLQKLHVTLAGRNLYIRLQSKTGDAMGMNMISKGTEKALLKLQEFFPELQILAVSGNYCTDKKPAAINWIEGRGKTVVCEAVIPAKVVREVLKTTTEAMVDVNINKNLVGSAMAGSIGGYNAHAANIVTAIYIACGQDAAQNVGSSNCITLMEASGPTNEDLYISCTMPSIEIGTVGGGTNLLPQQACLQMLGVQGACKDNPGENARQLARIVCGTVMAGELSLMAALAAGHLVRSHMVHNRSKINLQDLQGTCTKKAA
Experiment: Inhibition of Holtzman-Sprague-Dawley rat liver HMG CoA reductase after 30 mins

SMILES	IC50 [µM]
O=C1C[C@H](O)C[C@@H](/C=C/c2cnc3cc(Sc4ccccc4)c(Sc4ccccc4)cc3c2Sc2ccccc2)O1	32.5
CC(C)c1ccc(Sc2ccc3c(Sc4ccc(C(C)C)cc4)c(/C=C/[C@@H]4C[C@@H](O)CC(=O)O4)cnc3c2)cc1	15.8
COc1cccc(Sc2c(F)cc3c(Sc4cccc(OC)c4)c(/C=C/[C@@H]4C[C@@H](O)CC(=O)O4)cnc3c2F)c1	49.7
O=C1C[C@H](O)C[C@@H](/C=C/c2cnc3ccccc3c2Sc2ccc(F)cc2)O1	18.6
O=C1C[C@H](O)C[C@@H](/C=C/c2cnc3cc(Sc4ccc(F)cc4)c(F)cc3c2Sc2ccc(F)cc2)O1	38.9
COc1cccc(Sc2c(F)cc3c(Sc4cccc(OC)c4)c(/C=C/[C@@H]4C[C@@H](O)CC(=O)O4)cnc3c2Sc2cccc(OC)c2)c1	74.6
CC(C)c1ccc(Sc2c(/C=C/[C@@H]3C[C@@H](O)CC(=O)O3)cnc3cc(Cl)c(F)cc23)cc1	22.1

Results, then the compound that gave them:

IC50 [µM]	SMILES
12.7	CC(C)c1ccc(Sc2c(/C=C/[C@@H]3C[C@@H](O)CC(=O)O3)cnc3ccccc23)cc1
15.4	COc1cccc(Sc2cc3ncc(/C=C/[C@@H]4C[C@@H](O)CC(=O)O4)c(Sc4cccc(OC)c4)c3cc2Sc2cccc(OC)c2)c1
4.41	O=C1C[C@H](O)C[C@@H](/C=C/c2cnc3cc(Sc4ccccc4)c(F)cc3c2Sc2ccccc2)O1
10.7	O=C1C[C@H](O)C[C@@H](/C=C/c2cnc3c(F)c(F)c(F)cc3c2Sc2ccccc2)O1
14.2	CC(C)c1ccc(Sc2cc3ncc(/C=C/[C@@H]4C[C@@H](O)CC(=O)O4)c(Sc4ccc(C(C)C)cc4)c3cc2Sc2ccc(C(C)C)cc2)cc1
4.35	CC(C)c1ccc(Sc2cc3c(Sc4ccc(C(C)C)cc4)c(/C=C/[C@@H]4C[C@@H](O)CC(=O)O4)cnc3c(Sc3ccc(C(C)C)cc3)c2Sc2ccc(C(C)C)cc2)cc1
10.6	O=C(O)C[C@H](O)C[C@H](O)/C=C/c1c(C2CC2)nc2ccccc2c1-c1ccc(F)cc1 [PITAVASTATIN CALCIUM]
